Among the data in patent publication US9051310B2, “Nicotinamide derivative or salt thereof” (FUJIFILM Corporation, priority 2011, dated 2015) are IC50 values, retold here.

Test [1] has as its target T1, glutathione S-transferase (GST)-linked full-length human Syk protein (Homo sapiens, UniProt P43405).
T1 construct: glutathione S-transferase (GST)-linked full-length human Syk protein; purchased Carna Biosciences; host or cells: Baculovirus expression system
The experiment in a line: Syk enzyme assay. As to conditions: 0.83 nM Syk, time-resolved fluorescence; read-out: IC50 of Syk-inhibitory activity. The format is biochemical. Summed up: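 Phosphotyrosine on a biotin-peptide substrate (0.5 μM) was read by time-resolved fluorescence at 615 and 665 nm with Eu-anti-pTyr antibody and APC-streptavidin after 1 h EDTA stop.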

For test [2], the system named is THP-1 cells (TNFα secretion on human IgG-coated plate). The experiment in a line: TNFα generation assay. The format is cell-based. As to conditions: IFN-γ differentiated THP-1 cells, 7 hours, AlphaLISA, read-out: IC50 of TNFα generation inhibitory activity. An outline of the steps:
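Secreted TNFα was measured by AlphaLISA after 7 h of culture on human IgG-coated wells (coating at 10 μg/ml), with 5×10^4 cells/well. Before plating, the cells had been treated with compound for 30 min at room temperature. The cells were macrophage-like THP-1, produced by a 2-day exposure to 10 ng/ml IFN-γ.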
In general terms: Alpha assays give light when donor and acceptor beads are brought close together.

pIC50: −log10 of the molar value. Some results are limits rather than exact numbers.

Regarding `Cn1nc(N2CCCC2)c2cc(Nc3nc(N[C@@H]4CCCC[C@@H]4N)c(F)cc3C(N)=O)ccc21` [Example 2-428, 6-(((1R,2S)-2-aminocyclohexyl)amino)-5-fluoro-2-((1-methyl-3-(pyrrolidin-1-1)-1H-indazol-5-yl)amino)nicotinamide], the pIC50 was 7.30 to 8.00 in test [1] and 6.70 to 6.89 in test [2].

As for `NC(=O)c1cc(F)c(N[C@@H]2CCCC[C@@H]2N)nc1Nc1ccc(F)cc1` [Example 2-441, 6-(((1R,2S)-2-aminocyclohexyl)amino)-5-fluoro-2-((4-fluorophenyl)amino) nicotinamide], the values for the pIC50 in test [1] and in test [2] were > 8.00 and 6.70 to 6.89, respectively.

Turning to `COc1cccc(Nc2nc(N[C@H](C3CC3)[C@H](C)N)c(F)cc2C(N)=O)c1` [Example 2-46, 6-(((1R,2S)-2-amino-1-cyclopropylpropyl)amino)-5-fluoro-2-((3-methoxyphenyl)amino)nicotinamide], the pIC50 in test [1] is > 8.00; in test [2] it was 6.89 to 7.19.

Consider `CCC[C@@H](Nc1nc(Nc2cnc3c(c2)c(C)nn3C)c(C(N)=O)cc1F)[C@H](C)N` [Example 2-242, 6-(((2S,3R)-2-aminohexan-3-yl)amino)-2-((1,3-dimethyl-1H-pyrazolo[3,4-b]pyridin-5-yl)amino)-5-fluoronicotinamide], for which the pIC50 in test [1] is 7.30 to 8.00; in test [2], 6.70 to 6.89.

Turning to `Cc1nn(CC(F)F)c2ccc(Nc3nc(N[C@@H](CN)CC(C)C)c(F)cc3C(N)=O)cc12` [Example 2-137], the pIC50 was > 8.00 in test [1] and 6.89 to 7.19 in test [2].

Take `CCCC[C@@H](Nc1nc(Nc2cnc3c(c2)c(OC)nn3C)c(C(N)=O)cc1F)[C@H](C)N` [Example 2-254, 6-(((2S,3R)-2-aminoheptan-3-yl)amino)-5-fluoro-2-((3-methoxy-1-methyl-1H-pyrazolo[3,4-b]pyridin-5-yl)amino)nicotinamide]: the pIC50 is > 8.00 in test [1] and 6.70 to 6.89 in test [2].

In the case of `CC[C@@H](Nc1nc(Nc2cncc(-n3cc(Cl)cn3)c2)c(C(N)=O)cc1F)[C@H](C)N` [Example 2-522, 6-(((2S,3R)-2-aminopentan-3-yl)amino)-2-((5-(4-chloro-1H-pyrazol-1-yl)pyridin-3-yl)amino)-5-fluoronicotinamide], the pIC50 was 7.30 to 8.00 in test [1] and 6.70 to 6.89 in test [2].

With `COc1cccc(Nc2nc(N[C@H](C3CCC3)[C@H](C)N)c(F)cc2C(N)=O)c1` [Example 2-27, 6-(((1R,2S)-2-amino-1-cyclobutylpropyl)amino)-5-fluoro-2-((3-methoxyphenyl)amino)nicotinamide], the pIC50 in test [1] was > 8.00; in test [2] it was 6.89 to 7.19.

For `CC[C@H](N)[C@@H](C)Nc1nc(Nc2cncc(C3CC3)c2)c(C(N)=O)cc1F` [Example 2-41, 6-(((2R,3S)-3-aminopentan-2-yl)amino)-2-((5-cyclopropylpyridin-3-yl)amino)-5-fluoronicotinamide], the pIC50 is > 8.00 in test [1] and 6.89 to 7.19 in test [2].

Regarding `CCCC[C@@H](Nc1nc(Nc2cnc(C)c(C)c2)c(C(N)=O)cc1F)[C@H](C)N` [Example 2-19, 6-(((2S,3R)-2-aminoheptan-3-yl)amino)-2-((5,6-dimethylpyridin-3-yl)amino)-5-fluoronicotinamide], the pIC50 is > 8.00 in test [1] and 6.70 to 6.89 in test [2].

As for `Cc1ccc(Nc2nc(N[C@@H]3CCCC[C@@H]3N)c(F)cc2C(N)=O)cc1C` [Example 2-436, 6-(((1R,2S)-2-aminocyclohexyl)amino)-2-((3,4-dimethylphenyl)amino)-5-fluoronicotinamide], the results for the pIC50 in test [1] and in test [2] were > 8.00 and 6.70 to 6.89, respectively.

Regarding `NC(=O)c1cc(F)c(N[C@@H]2CCCC[C@@H]2N)nc1Nc1cccc2c1cnn2CC(F)F` [Example 2-20, 6-(((1R,2S)-2-aminocyclohexyl)amino)-2-((1-(2,2-difluoroethyl)-1H-indazol-4-yl)amino)-5-fluoronicotinamide], the figures for the pIC50 in test [1] and in test [2] were > 8.00 and 6.89 to 7.19, respectively.
